Assay results from patent publication US5543396A, “Proline phosphonate derivatives” (priority 1994, dated 1996).

Key:
Human Placenta DPP-IV = target: T1, Human Placenta DPP-IV (Homo sapiens, UniProt P27487); experiment: Inhibition of DPP-IV by peptidyl phosphonates, incubation method; type: biochemical; settings: for % Inhibition 2 min / % Inhibition 30 min: [I] 0.12 mM, 0.05 M Tris pH 7.8, 5% Me2SO, substrate TFA.Ala-Pro-AFC 0.190 mM; for % Inhibition 2 min / % Inhibition 30 min / kobs /[I] for DPP-IV: 23° C.; for kobs /[I] for DPP-IV: 0.05 M Tris pH 7.8, 8% Me2SO, substrate TFA.Ala-Pro-AFC 0.2 mM; for inhibition of DPP-IV, in words: inhibitor 0.12 mM
T1 construct: from tissue; host or cells: human placenta
Procedure: Standard Assay of DPP-IV. DPP-IV was assayed in 450 μL of 50 mM Tris, pH 7.8, 0.2 mM Ala-Pro-AFC (freshly diluted from a 20 mM stock in DMF), and 5 μL of enzyme solution at 30° C. or in 2 mL of buffer, 0.2 mM Ala-Pro-AFC (diluted from 8 mM stock in Me2 SO) at 23° C. Fluorescence was measured at 400 nm excitation and 505 nm emission. One unit of DPP-IV is defined as the amount of enzyme that will hydrolyze 1.0 μmole of Ala-Pro-AFC per min at 25° C. and pH 7.8.
Enzyme Irreversible Inactivation--Incubation Method. An aliquot of inhibitor (25 or 50 μL) in Me2 SO was added to 0.28-0.55 mL of a buffered enzyme solution (0.83 munits for DPP-IV; 2.1 units for acetylcholinesterase; 0.07-4.5 μM for other enzymes) to initiate the inactivation reaction. Aliquots (20-250 μL) were withdrawn at various intervals and the residual enzymatic activity was measured at 23° C. as described below. The buffers were: 0.05M Tris, pH 7.8 for DPP-IV; 0.1M Hepes, 0.01M CaCl2, pH 7.5 for bovine trypsin; 0.1M Hepes, 0.5M NaCl, pH 7.5 for bovine chymotrypsin, PPE, and HLE; 0.1M phosphate, pH 7.5 for acetylcholinesterase; 50 mM Tris-HCl, 2 mM EDTA, 5 mM cysteine, (freshly prepared) pH 7.5 buffer for papain and 100 mM KH2 PO4, 1.33 mM EDTA, 2.7 mM cysteine (freshly prepared), pH 6.0 buffer for cathepsin B. […] The inhibitor concentrations are shown in the appropriate table. Stock solutions of substrates were prepared in Me2 SO and stored at -20° C. DPP-IV was assayed with TFA.Ala-Pro-AFC. Papain and cathepsin B were assayed with Bz-Arg-AMC and Z-Arg-Arg-AMC, respectively. The release of AMC were followed fluorometrically (excitation at 380 nm and emmision at 460 nm for AMC). Acetylcholinesterase was assayed with acetylthiocholine iodide in the presence of DTNB at 412 nm. Trypsin was assayed with Z-Phe-Gly-Arg-.rho.NA.HCl (0.09 mM), chymotrypsin was assayed with Suc-Phe-Thr-Phe-.rho.NA (0.48 mM), PPE and HLE were assayed with Suc-Ala-Ala-Ala-.rho.NA (0.44 mM) and MeO-Suc-Ala-Ala-Pro-Val-.rho.NA (0.24 mM), respectively. Peptide .rho.-nitroanilide hydrolysis was measured at 410 nm (ε410 =8,800 M ^1 cm^-1). Pseudo first-order inactivation rate constants (kobs) were obtained from plots of In vt /vo vs time, and the correlation coefficients were greater than 0.98.

[1] = Half-lives for spontaneous hydrolysis of inhibitors in buffer; type: physicochemical; settings: 0.05 M Tris, pH 7.8 buffer, 8% Me2SO, 23° C.
Description: Determination of Half-Lives for Spontaneous Hydrolysis of Inhibitors in Buffer. […] The spontaneous hydrolysis was monitored by following the increase in absorbance at 270 nm for phosphonates with phenoxy groups, at 280 nm for compounds with 4-.chlorophenoxy groups or at 277 nm for the 4-fluorophenoxy derivative. Half-lives were obtained from first-order plots of ln (Af -At) vs time, where At is the absorbance of the mixture at time t, and Af is the final absorbance of phosphonate monophenyl ester and phenol (or corresponding compounds). This was obtained from the absorbance of the solution which had remained constant for a few hours. All the plots gave correlation coefficients of 0.95 or greater.

DPP-IV = DPP-IV (Homo sapiens, UniProt P27487); experiment: Stability of inhibited DPP-IV; settings: for recovery of enzyme activity of inhibited DPP-IV: after 24 h, excess inhibitor removed by centrifugation; for DPP-IV enzyme activity found after incubation with inhibitor: inhibitor 0.042-0.42 mM, pH 7.8 buffer, incubation for 1 h
Procedure: Excess inhibitors in the inhibited enzyme solution were removed by centrifugation of the diluted enzyme solution twice using Amicon microconcentrators.
Stability of Inhibited DPP-IV. […] Excess inhibitors was removed from diluted solutions of inactivated enzyme by centrifugation three times at 0° C. for 1 h each in Amicon Centricon-10 microconcentrators following addition of buffer. The enzyme activity of solution was assayed at various intervals as described above.

[2] = Hydrolysis in human plasma; type: in vitro ADME
Description: Furthermore, they show excellent stability in human plasma. For example Suc-Val-Pro-Phe^P (OPh)2 has a hydrolysis half-time in human plasma of about 20 hrs. […] Thus they can be used under a variety of conditions. Phosphonates have the additional advantage of being very stable in plasma and will have a high effectiveness in […] vivo due to their long lifetimes.

Chymotrypsin = Chymotrypsin (Bos taurus, UniProt P00766); experiment: Inhibition of chymotrypsin, incubation method; type: biochemical, bovine; settings: for kobs /[I] Chymotrypsin: [I] 0.42 mM, 0.1 M Hepes, 0.5 M NaCl, pH 7.5, 8-9% Me2SO, 23° C., Suc-Phe-Thr-Phe-pNA 0.48 mM
Procedure: Inactivation rates of serine proteases by aryl diesters of peptidyl derivatives of α-aminoalkylphosphonates were measured by the incubation method. An aliquot of inhibitor (25 or 50 μl) in Me2 SO was added to a buffered enzyme solution (0.01-2.3 μM) to initiate the inactivation. Aliquots (50 μl) were withdrawn at various intervals and the residual enzymatic activity was measured. Me2 SO concentration in the reaction mixture was 8-12% (v/v). A 0.1M HEPES, 0.01M CaCl2, pH 7.5 buffer was utilized for trypsin and trypsin-like enzymes. A 0.1M HEPES, 0.5M NaCl, pH 7.5, was utilized for the other serine proteases. Peptide thioesters or peptide nitroanilides with the appropriate sequences were used as substrates for various serine proteases. All peptide thioesters hydrolysis rates were measured with the assay mixture containing 4,4'-dithiodipyridine (ε324 =19800M^-1 cm^-1). Peptide 4-nitroanilide hydrolysis was measured at 410 nm (ε410 =8800 M ^-1 cm^-1). First order inactivation rate constants (kobs) were obtained from plots of ln vt /vo vs time, and the correlation coefficients were greater then 0.98.
Enzyme Irreversible Inactivation--Incubation Method. An aliquot of inhibitor (25 or 50 μL) in Me2 SO was added to 0.28-0.55 mL of a buffered enzyme solution (0.83 munits for DPP-IV; 2.1 units for acetylcholinesterase; 0.07-4.5 μM for other enzymes) to initiate the inactivation reaction. Aliquots (20-250 μL) were withdrawn at various intervals and the residual enzymatic activity was measured at 23° C. as described below. The buffers were: 0.05M Tris, pH 7.8 for DPP-IV; 0.1M Hepes, 0.01M CaCl2, pH 7.5 for bovine trypsin; 0.1M Hepes, 0.5M NaCl, pH 7.5 for bovine chymotrypsin, PPE, and HLE; 0.1M phosphate, pH 7.5 for acetylcholinesterase; 50 mM Tris-HCl, 2 mM EDTA, 5 mM cysteine, (freshly prepared) pH 7.5 buffer for papain and 100 mM KH2 PO4, 1.33 mM EDTA, 2.7 mM cysteine (freshly prepared), pH 6.0 buffer for cathepsin B. The Me2 SO concentration in the reaction mixtures was 8-9% (v/v). The inhibitor concentrations are shown in the appropriate table. Stock solutions of substrates were prepared in Me2 SO and stored at -20° C. DPP-IV was assayed with TFA.Ala-Pro-AFC. Papain and cathepsin B were assayed with Bz-Arg-AMC and Z-Arg-Arg-AMC, respectively. The release of AMC were followed fluorometrically (excitation at 380 nm and emmision at 460 nm for AMC). Acetylcholinesterase was assayed with acetylthiocholine iodide in the presence of DTNB at 412 nm. Trypsin was assayed with Z-Phe-Gly-Arg-.rho.NA.HCl (0.09 mM), chymotrypsin was assayed with Suc-Phe-Thr-Phe-.rho.NA (0.48 mM), PPE and HLE were assayed with Suc-Ala-Ala-Ala-.rho.NA (0.44 mM) and MeO-Suc-Ala-Ala-Pro-Val-.rho.NA (0.24 mM), respectively. Peptide .rho.-nitroanilide hydrolysis was measured at 410 nm (ε410 =8,800 M ^1 cm^-1). […]

T1 sequence (P27487 whole entry): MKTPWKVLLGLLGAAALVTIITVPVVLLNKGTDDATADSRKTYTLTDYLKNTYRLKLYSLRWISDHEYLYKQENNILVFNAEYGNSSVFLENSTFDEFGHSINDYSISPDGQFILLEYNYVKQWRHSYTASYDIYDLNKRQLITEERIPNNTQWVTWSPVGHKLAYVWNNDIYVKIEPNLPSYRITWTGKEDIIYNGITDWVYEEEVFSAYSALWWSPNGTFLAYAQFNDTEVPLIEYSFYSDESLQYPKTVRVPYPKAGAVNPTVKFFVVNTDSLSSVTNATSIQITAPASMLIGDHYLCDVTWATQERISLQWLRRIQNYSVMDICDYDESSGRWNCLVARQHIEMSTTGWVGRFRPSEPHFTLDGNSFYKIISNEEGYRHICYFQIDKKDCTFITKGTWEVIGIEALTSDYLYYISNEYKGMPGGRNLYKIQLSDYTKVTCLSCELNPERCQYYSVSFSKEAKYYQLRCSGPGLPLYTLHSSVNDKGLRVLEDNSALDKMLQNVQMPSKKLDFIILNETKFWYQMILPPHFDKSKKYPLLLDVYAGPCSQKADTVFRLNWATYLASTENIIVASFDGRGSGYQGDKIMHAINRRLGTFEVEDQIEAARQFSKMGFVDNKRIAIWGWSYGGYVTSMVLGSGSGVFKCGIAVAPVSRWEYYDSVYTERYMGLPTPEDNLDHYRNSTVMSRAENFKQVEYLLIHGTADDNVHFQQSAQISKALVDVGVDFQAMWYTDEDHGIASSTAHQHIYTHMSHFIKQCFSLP
Chain of DPP-IV (P27487 whole entry): as above

Compound	% Inhibition 2 min (Human Placenta DPP-IV; 2 min incubation)	% Inhibition 30 min (Human Placenta DPP-IV; 30 min incubation)	kobs /[I] for DPP-IV (Human Placenta DPP-IV; [I] 0.42 mM)	inhibition of DPP-IV, in words (Human Placenta DPP-IV; 30 min incubation)	t1/2, half-life for hydrolysis [1]	recovery of enzyme activity of inhibited DPP-IV (DPP-IV)	DPP-IV enzyme activity found after incubation with inhibitor (DPP-IV)	hydrolysis half-time in human plasma [2]	inhibition of DPP-IV, in words (Human Placenta DPP-IV; 2 min incubation)	inhibition of chymotrypsin, in words (Chymotrypsin)	kobs /[I] Chymotrypsin (Chymotrypsin)	kobs /[I] for DPP-IV (Human Placenta DPP-IV; [I] 0.042 mM)
CC(=O)O.C[C@H](N)C(=O)N1CCCCC1P(=O)(Oc1ccccc1)Oc1ccccc1 (some centres unmarked) [Compound 7, Diphenyl Alanylpiperidine-2-phosphonate Acetate]	0%	100%	12.6 M⁻¹ s⁻¹	showed some inhibitory potency	> 72 h	did not regain enzyme activity	no enzyme activity	–	–	–	–	–
Suc-Val-Pro-Phe^P (OPh)2	–	–	–	–	–	–	–	about 20 hrs	–	–	–	–
CC(=O)O.C[C@H](N)C(=O)N1CCCCC1P(=O)(O)Oc1ccccc1 (some centres unmarked) [Compound 8, Monophenyl Alanylpiperidine-2-phosphonate Acetate]	0%	0%	–	did not show any inhibition	–	–	–	–	–	–	–	–
Cl.Cl.NCCCC[C@H](N)C(=O)N1CCCCC1P(=O)(Oc1ccccc1)Oc1ccccc1 (some centres unmarked) [Compound 11, Diphenyl Lysylpiperidine-2-phosphonate Dihydrochloride]	35%	88%	4.2 M⁻¹ s⁻¹	showed some inhibitory potency	> 48 h	–	–	–	effectively inhibited	–	–	–
Br.Br.NCCCC[C@H](N)C(=O)N1CCCC1P(=O)(Oc1ccccc1)Oc1ccccc1 (some centres unmarked) [Compound 10, Diphenyl Lysylpyrrolidine-2-phosphonate Dihydrobromide]	0%	0%	1.7 M⁻¹ s⁻¹	did not show any inhibition	52 h	–	–	–	–	–	–	–
C[C@H](N)C(=O)N1CCCCC1P(=O)(Oc1ccc(F)cc1)Oc1ccc(F)cc1.Cl (some centres unmarked) [Compound 14, Di(4-fluorophenyl) Alanyl-piperidine-2-phosphonate Hydrochloride]	–	–	12 M⁻¹ s⁻¹	–	> 68 h	–	no enzyme activity	–	–	–	–	–
C[C@H](N)C(=O)N1CCCC1P(=O)(Oc1ccc(Cl)cc1)Oc1ccc(Cl)cc1.Cl (some centres unmarked) [Compound 12, Di(4-chlorophenyl) Alanylpyrrolidine-2-phosphonate Hydrochloride]	0%	100%	28 M⁻¹ s⁻¹	showed some inhibitory potency	5.3 h	did not regain enzyme activity	–	–	–	very slowly	26 M⁻¹ s⁻¹	–
C[C@H](N)C(=O)N1CCCCC1P(=O)(Oc1ccc(Cl)cc1)Oc1ccc(Cl)cc1.Cl (some centres unmarked) [Compound 13, Di(4-chlorophenyl) Alanylpiperidine-2-phosphonate Hydrochloride]	88%	100%	–	showed some inhibitory potency	67 h	did not regain enzyme activity	no enzyme activity	–	effectively inhibited	very slowly	18 M⁻¹ s⁻¹	156 M⁻¹ s⁻¹
C[C@H](N)C(=O)N1CCCC1P(=O)(Oc1ccccc1)Oc1ccccc1.Cl (some centres unmarked) [Compound 6, Diphenyl Alanylpyrrolidine-2-phosphonate Hydrochloride]	0%	33%	1.2 M⁻¹ s⁻¹	showed some inhibitory potency	23.1 h	did not regain enzyme activity	30%	–	–	–	–	–
Br.N[C@@H](Cc1ccccc1)C(=O)N1CCCC1P(=O)(Oc1ccccc1)Oc1ccccc1 (some centres unmarked) [Compound 9, Diphenyl Phenylalanylpyrrolidine-2-phosphonate Hydrobromide]	0%	0%	–	did not show any inhibition	–	–	–	–	–	–	–	–
